Values quoted from earlier work, collected in patent US12257323B2, “Modified wound dressings” (CONVATEC TECHNOLOGIES INC., priority 2016, dated 2025).

Target: T1, MMP-1 (Homo sapiens, UniProt P03956)
T1 sequence (P03956 100-469): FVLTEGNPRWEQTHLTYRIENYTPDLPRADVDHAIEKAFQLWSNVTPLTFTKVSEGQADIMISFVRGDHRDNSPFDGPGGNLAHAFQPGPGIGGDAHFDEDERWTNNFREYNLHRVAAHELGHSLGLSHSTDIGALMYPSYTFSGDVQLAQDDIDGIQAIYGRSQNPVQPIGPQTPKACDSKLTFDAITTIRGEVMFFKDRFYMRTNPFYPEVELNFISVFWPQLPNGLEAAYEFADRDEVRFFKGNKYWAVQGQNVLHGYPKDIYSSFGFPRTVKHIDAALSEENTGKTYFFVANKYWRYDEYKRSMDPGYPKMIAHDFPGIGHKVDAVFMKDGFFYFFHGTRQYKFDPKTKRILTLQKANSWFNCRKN
Conditions: cited from earlier work

Substance	Relative rate MMP-1
Gly-Pro-Leu-Gly#Ile-Ala-Gly-Gln	150
Gly-Pro-Gln-Gly#Ile-Leu-Gly-Gln	430
Gly-Pro-Gln-Gly#Glu-Ala-Gly-Gln	<0.5
Gly-Pro-Gln-Gly#Ile-Glu-Gly-Gln	35
Gly-Pro-Gln-Gly#Ile-Ala-Gly-Gln	100
Gly-Pro-Gln-Gly#Ile-Ala-Ser-Gln	91
Gly-Pro-Gln-Met#Ile-Ain-Gly-Gln	200
Gly-Asn-Gln-Gly#Ile-Ala-Gly-Gln (GNQGIAGQ; printed: Gly-Asn-Gln-Gly; printed: Ile-Ala-Gly-Gln)	17
Gly-Pro-Gln-Pro#Ile-Ala-Gly-Gln	260
Gly-Pro-Gln-Gly#Ile-Trp-Gly-Gln	840
Gly-Pro-Gln-Gly#Leu-Ala-Gly-Gln	130
Gly-Pro-Gln-Gln#Ile-Ala-Gly-Gln	140
Gly-Pro-Gln-Glu#Ile-Ala-Gly-Gln	28
Gly-Pro-Gln-Gly#Val-Ala-Gly-Gln	9.1
Gly-Pro-Tyr-Gly#Ile-Ala-Gly-Gln	200

Target: MMP-8 (Homo sapiens, UniProt P22894)
Conditions: cited from earlier work

Sequence of MMP-8 (P22894 101-467): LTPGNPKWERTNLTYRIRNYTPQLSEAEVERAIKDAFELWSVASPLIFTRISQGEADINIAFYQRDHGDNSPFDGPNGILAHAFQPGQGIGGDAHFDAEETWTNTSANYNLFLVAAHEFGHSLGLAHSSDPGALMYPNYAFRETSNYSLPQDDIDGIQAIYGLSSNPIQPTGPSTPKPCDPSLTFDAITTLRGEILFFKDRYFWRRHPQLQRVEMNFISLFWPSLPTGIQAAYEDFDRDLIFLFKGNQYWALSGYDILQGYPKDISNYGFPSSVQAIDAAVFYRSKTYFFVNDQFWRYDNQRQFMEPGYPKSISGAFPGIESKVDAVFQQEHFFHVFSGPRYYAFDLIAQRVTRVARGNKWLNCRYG

Substance	Relative rate MMP-8
Gly-Pro-Leu-Gly#Ile-Ala-Gly-Gln	260
Gly-Pro-Gln-Gly#Ile-Leu-Gly-Gln	400
Gly-Pro-Gln-Gly#Glu-Ala-Gly-Gln	<0.5
Gly-Pro-Gln-Gly#Ile-Glu-Gly-Gln	59
Gly-Pro-Gln-Gly#Ile-Ala-Gly-Gln	100
Gly-Pro-Gln-Gly#Ile-Ala-Ser-Gln	58
Gly-Pro-Gln-Met#Ile-Ain-Gly-Gln	140
Gly-Asn-Gln-Gly#Ile-Ala-Gly-Gln (GNQGIAGQ; printed: Gly-Asn-Gln-Gly; printed: Ile-Ala-Gly-Gln)	45
Gly-Pro-Gln-Pro#Ile-Ala-Gly-Gln	190
Gly-Pro-Gln-Gly#Ile-Trp-Gly-Gln	930
Gly-Pro-Gln-Gly#Leu-Ala-Gly-Gln	180
Gly-Pro-Gln-Gln#Ile-Ala-Gly-Gln	150
Gly-Pro-Gln-Glu#Ile-Ala-Gly-Gln	330
Gly-Pro-Gln-Gly#Val-Ala-Gly-Gln	9.0
Gly-Pro-Tyr-Gly#Ile-Ala-Gly-Gln	110

Target: T2, MMP-2 (Homo sapiens, UniProt P08253)
T2 sequence (P08253 110-660): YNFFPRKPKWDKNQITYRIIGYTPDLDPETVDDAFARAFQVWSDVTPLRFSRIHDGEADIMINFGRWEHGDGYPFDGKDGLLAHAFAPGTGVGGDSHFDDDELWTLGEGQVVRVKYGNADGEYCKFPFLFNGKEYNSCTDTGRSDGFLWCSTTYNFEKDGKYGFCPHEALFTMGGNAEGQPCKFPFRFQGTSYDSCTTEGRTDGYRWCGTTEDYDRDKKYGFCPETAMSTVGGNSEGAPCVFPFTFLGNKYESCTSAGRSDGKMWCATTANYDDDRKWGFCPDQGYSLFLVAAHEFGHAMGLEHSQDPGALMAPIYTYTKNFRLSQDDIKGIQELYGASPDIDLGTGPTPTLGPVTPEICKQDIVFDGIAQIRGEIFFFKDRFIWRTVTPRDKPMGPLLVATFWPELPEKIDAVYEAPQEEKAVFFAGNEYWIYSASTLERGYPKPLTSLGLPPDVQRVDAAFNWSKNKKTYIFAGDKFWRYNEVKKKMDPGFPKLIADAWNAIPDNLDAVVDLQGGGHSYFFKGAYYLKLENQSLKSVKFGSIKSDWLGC
Conditions: cited from earlier work

Substance	Relative rate MMP-2
Gly-Pro-Leu-Gly#Ile-Ala-Gly-Gln	330
Gly-Pro-Gln-Gly#Ile-Leu-Gly-Gln	400
Gly-Pro-Gln-Gly#Glu-Ala-Gly-Gln	<5.0
Gly-Pro-Gln-Gly#Ile-Glu-Gly-Gln	85
Gly-Pro-Gln-Gly#Ile-Ala-Gly-Gln	100
Gly-Pro-Gln-Gly#Ile-Ala-Ser-Gln	320
Gly-Pro-Gln-Met#Ile-Ain-Gly-Gln	22
Gly-Asn-Gln-Gly#Ile-Ala-Gly-Gln (GNQGIAGQ; printed: Gly-Asn-Gln-Gly; printed: Ile-Ala-Gly-Gln)	60
Gly-Pro-Gln-Pro#Ile-Ala-Gly-Gln	32
Gly-Pro-Gln-Gly#Ile-Trp-Gly-Gln	310
Gly-Pro-Gln-Gly#Leu-Ala-Gly-Gln	88
Gly-Pro-Gln-Gln#Ile-Ala-Gly-Gln	25
Gly-Pro-Gln-Glu#Ile-Ala-Gly-Gln	15
Gly-Pro-Gln-Gly#Val-Ala-Gly-Gln	30
Gly-Pro-Tyr-Gly#Ile-Ala-Gly-Gln	200

Target: MMP-9 (Homo sapiens, UniProt P14780)
Conditions: cited from earlier work

Sequence of MMP-9 (P14780 94-707): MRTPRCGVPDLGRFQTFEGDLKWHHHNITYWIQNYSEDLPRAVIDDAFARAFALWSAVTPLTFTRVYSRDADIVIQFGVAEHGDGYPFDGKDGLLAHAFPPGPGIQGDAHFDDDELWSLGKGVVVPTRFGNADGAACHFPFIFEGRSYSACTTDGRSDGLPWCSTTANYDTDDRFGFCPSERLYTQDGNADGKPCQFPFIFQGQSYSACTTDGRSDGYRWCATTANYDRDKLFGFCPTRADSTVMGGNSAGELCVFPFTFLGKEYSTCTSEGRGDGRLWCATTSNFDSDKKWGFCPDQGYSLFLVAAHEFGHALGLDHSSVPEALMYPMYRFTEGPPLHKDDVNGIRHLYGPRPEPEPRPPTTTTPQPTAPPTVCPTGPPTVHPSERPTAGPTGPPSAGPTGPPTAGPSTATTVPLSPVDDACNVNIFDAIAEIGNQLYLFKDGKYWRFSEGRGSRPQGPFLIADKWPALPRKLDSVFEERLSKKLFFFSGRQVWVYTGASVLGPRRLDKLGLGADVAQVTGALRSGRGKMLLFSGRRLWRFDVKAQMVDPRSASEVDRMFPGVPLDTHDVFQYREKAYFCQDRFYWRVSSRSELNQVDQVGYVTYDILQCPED

Substance	Relative rate MMP-9
Gly-Pro-Leu-Gly#Ile-Ala-Gly-Gln	290
Gly-Pro-Gln-Gly#Ile-Leu-Gly-Gln	240
Gly-Pro-Gln-Gly#Glu-Ala-Gly-Gln	<5.0
Gly-Pro-Gln-Gly#Ile-Glu-Gly-Gln	130
Gly-Pro-Gln-Gly#Ile-Ala-Gly-Gln	100
Gly-Pro-Gln-Gly#Ile-Ala-Ser-Gln	130
Gly-Pro-Gln-Met#Ile-Ain-Gly-Gln	12
Gly-Asn-Gln-Gly#Ile-Ala-Gly-Gln (GNQGIAGQ; printed: Gly-Asn-Gln-Gly; printed: Ile-Ala-Gly-Gln)	<5.0
Gly-Pro-Gln-Pro#Ile-Ala-Gly-Gln	46
Gly-Pro-Gln-Gly#Ile-Trp-Gly-Gln	140
Gly-Pro-Gln-Gly#Leu-Ala-Gly-Gln	80
Gly-Pro-Gln-Gln#Ile-Ala-Gly-Gln	13
Gly-Pro-Gln-Glu#Ile-Ala-Gly-Gln	29
Gly-Pro-Gln-Gly#Val-Ala-Gly-Gln	25
Gly-Pro-Tyr-Gly#Ile-Ala-Gly-Gln	150

Target: MMP-3 (Homo sapiens, UniProt P08254)
Conditions: cited from earlier work

Sequence of MMP-3 (P08254 100-477): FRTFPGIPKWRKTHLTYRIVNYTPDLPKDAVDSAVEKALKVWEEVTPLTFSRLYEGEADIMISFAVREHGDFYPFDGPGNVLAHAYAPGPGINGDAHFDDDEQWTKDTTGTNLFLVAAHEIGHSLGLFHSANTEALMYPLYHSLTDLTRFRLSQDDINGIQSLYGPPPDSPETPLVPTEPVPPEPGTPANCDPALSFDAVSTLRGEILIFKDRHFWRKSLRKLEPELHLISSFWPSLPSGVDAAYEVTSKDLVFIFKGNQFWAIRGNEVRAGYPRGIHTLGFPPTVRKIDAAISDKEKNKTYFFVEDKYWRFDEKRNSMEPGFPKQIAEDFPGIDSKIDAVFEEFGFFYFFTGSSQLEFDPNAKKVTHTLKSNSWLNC

Substance	Relative rate MMP-3
Gly-Pro-Leu-Gly#Ile-Ala-Gly-Gln	190
Gly-Pro-Gln-Gly#Ile-Leu-Gly-Gln	280
Gly-Pro-Gln-Gly#Glu-Ala-Gly-Gln	<0.5
Gly-Pro-Gln-Gly#Ile-Glu-Gly-Gln	58
Gly-Pro-Gln-Gly#Ile-Ala-Gly-Gln	100
Gly-Pro-Gln-Gly#Ile-Ala-Ser-Gln	230
Gly-Pro-Gln-Met#Ile-Ain-Gly-Gln	110
Gly-Asn-Gln-Gly#Ile-Ala-Gly-Gln (GNQGIAGQ; printed: Gly-Asn-Gln-Gly; printed: Ile-Ala-Gly-Gln)	68
Gly-Pro-Gln-Pro#Ile-Ala-Gly-Gln	170
Gly-Pro-Gln-Gly#Ile-Trp-Gly-Gln	280
Gly-Pro-Gln-Gly#Leu-Ala-Gly-Gln	110
Gly-Pro-Gln-Gln#Ile-Ala-Gly-Gln	140
Gly-Pro-Gln-Glu#Ile-Ala-Gly-Gln	190
Gly-Pro-Gln-Gly#Val-Ala-Gly-Gln	53
Gly-Pro-Tyr-Gly#Ile-Ala-Gly-Gln	230

Target: T3, MMP-7 (Homo sapiens, UniProt P09237)
T3 sequence (P09237 95-267): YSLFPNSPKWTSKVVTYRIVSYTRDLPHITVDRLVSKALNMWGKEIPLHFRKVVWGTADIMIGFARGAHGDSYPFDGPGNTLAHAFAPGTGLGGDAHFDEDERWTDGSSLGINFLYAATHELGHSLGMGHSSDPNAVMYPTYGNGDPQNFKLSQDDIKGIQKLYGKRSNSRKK
Conditions: cited from earlier work

Substance	Relative rate MMP-7
Gly-Pro-Leu-Gly#Ile-Ala-Gly-Gln	420
Gly-Pro-Gln-Gly#Ile-Leu-Gly-Gln	250
Gly-Pro-Gln-Gly#Glu-Ala-Gly-Gln	8.0
Gly-Pro-Gln-Gly#Ile-Glu-Gly-Gln	86
Gly-Pro-Gln-Gly#Ile-Ala-Gly-Gln	100
Gly-Pro-Gln-Gly#Ile-Ala-Ser-Gln	150
Gly-Pro-Gln-Met#Ile-Ain-Gly-Gln	150
Gly-Asn-Gln-Gly#Ile-Ala-Gly-Gln (GNQGIAGQ; printed: Gly-Asn-Gln-Gly; printed: Ile-Ala-Gly-Gln)	25
Gly-Pro-Gln-Pro#Ile-Ala-Gly-Gln	140
Gly-Pro-Gln-Gly#Ile-Trp-Gly-Gln	330
Gly-Pro-Gln-Gly#Leu-Ala-Gly-Gln	300
Gly-Pro-Gln-Gln#Ile-Ala-Gly-Gln	180
Gly-Pro-Gln-Glu#Ile-Ala-Gly-Gln	170
Gly-Pro-Gln-Gly#Val-Ala-Gly-Gln	17
Gly-Pro-Tyr-Gly#Ile-Ala-Gly-Gln	240
